Read-outs that look alike come from different tables or passages of the source.
Key:
poppy crops [1] = assay: Example 16: field trial, metsulfuron-methyl, mesosulfuron-methyl and triasulfuron at row cover and ground cover/early run-up, morphine crop; assay type: in vivo, Papaver somniferum; conditions: Trt 2: COMPOUND 1 120 MG/HA + PULSE .2% V/V at RC and GC/ERU
Method: (§1) All trials were conducted on poppy crops. Seed was treated with Thiram (5.6 g of Thiram 800/kg seed) and Apron (4 g/kg) and sown at a rate of approximately 750 g/ha. Fertilisers were applied at sowing. Most commonly, either 50:50 lime:superphosphate/triple superphosphate at 125 kg/ha, or lime:superphosphate at 250 kg/ha, were mixed with seed and drilled at a depth of 15 mm. In the same operation, NPK (nitrogen:phosphorus:potassium), at various rates, was banded 75 mm below the seed, unless otherwise stated. All crops were subjected to herbicide sprays for weed control, fungicide sprays for disease control, insecticide sprays if appropriate and were irrigated as required.
(§2) All spray applications were made with a precision sprayer, using Silvan Lurmark flat-fan, low-drift nozzles (LD110-0015). Spray equipment was calibrated to deliver 153 L water/ha.
(§3) At harvest, a 2 m×4 m quadrat was placed in each plot (3 m×6 m, unless otherwise stated) and capsules hand-picked from this area. Capsules were broken up, seed and capsule material separated and weighed. Capsule moisture readings were taken with a moisture meter. Alkaloid yield data were calculated on Pesticide Research Manager (version 5 for Windows) using the formulae below. Briefly, capsule weight was adjusted for moisture to a dry weight, 5% of seed weight was added to this (this amount of capsule material regularly occurs in seed samples after processing) to give a capsule weight per plot. Seed weight was adjusted to 95% of crude weight. Straw weights were determined by multiplying dry capsule weight by 1.3 (estimated amount of stem material in a commercial harvest) and adjusted to 11% moisture. When Lontrel was applied to crops exact capsule and seed weight data were entered. Analyses of variance and a Multiple Range Test were performed on data using Pesticide Research Manager.
Trial to evaluate applications of metsulfuron-methyl (Compound 1), mesosulfuron-methyl (Compound 2) and triasulfuron (Compound 3), in a morphine crop. Treatment sprays were applied to crop at row cover and ground cover/early run-up, respectively. Plant heights were assessed 5 weeks after last application and lodging was assessed at capsule harvest.

poppy crops [2] = system: poppy crops; set-up: species or system Papaver somniferum; conditions: in vivo
poppy crops [3] = assay: Example 11: field trial, metsulfuron-methyl, Sunny and metsulfuron-methyl+Sunny at row cover, early run-up, bud-emergence/early hook, morphine crop; assay type: in vivo, Papaver somniferum; conditions: Trt 4: COMPOUND 1 120 MG/HA + PULSE .2% V/V at RC, ERU and BE/EH
Method: as §1, §2
as §3, with “Manager. Significant differences (P=0.05) between treatments are denoted by different lower case letters adjacent to treatment means in the tables of results.” for “Manager.”
Trial to evaluate applications of metsulfuron-methyl (Compound 1), Sunny and metsulfuron-methyl+Sunny, in a morphine crop. Treatment sprays were applied to crop at row cover, early run-up and bud-emergence/early hook. Plant heights were measured at green capsule stage.

poppy crops [4] = assay: Example 12: field trial, metsulfuron-methyl, Sunny and metsulfuron-methyl+Sunny at row cover, early run-up, late run-up, morphine crop; assay type: in vivo, Papaver somniferum; conditions: Trt 3: COMPOUND 1 120 MG/HA + PULSE .2% V/V at RC, ERU and LRU
Method: as §1, §2
as §3, with “Manager. Significant differences (P=0.05) between treatments are denoted by different lower case letters adjacent to treatment means in the tables of results.” for “Manager.”
Trial to evaluate applications of metsulfuron-methyl (Compound 1), Sunny and metsulfuron-methyl+Sunny, in a morphine crop. Treatment sprays were applied to crop at row cover, early run-up and late run-up. Plant heights were measured at end of flowering.

poppy crops [5] = assay: Example 17: field trial, triasulfuron, mesosulfuron-methyl and metsulfuron-methyl at early run-up and mid-late run-up, morphine crop; assay type: in vivo, Papaver somniferum; conditions: Trt 2: COMPOUND 1 120 MG/HA + PULSE .2% V/V at ERU and M-LRU
Method: as §1, §2, §3
Trial to evaluate applications of triasulfuron, mesosulfuron-methyl and metsulfuron-methyl, in a morphine crop. Treatment sprays were applied to with crop at early run-up and mid-late run-up, respectively. Plant heights were measured on 6 weeks after last application and lodging was assessed at capsule harvest.

poppy crops [6] = assay: Example 1: field trial, metsulfuron-methyl 36 or 120 mg/ha at 12-14 leaf and ground cover, morphine crop; assay type: in vivo, Papaver somniferum
Method: as §1, §2
as §3, with “Manager. Significant differences (P=0.05) between treatments are denoted by different lower case letters adjacent to treatment means in the tables of results.” for “Manager.”
Metsulfuron-methyl (Compound 1) was applied at a rate of 36 or 120 mg/ha at 12-14 leaf and ground cover growth stages, in a morphine crop.

Question: For `COC(=O)c1ccccc1S(=O)(=O)NC(=O)Nc1nc(C)nc(OC)n1` [Compound 1, metsulfuron-methyl], which “CAPS/SEED RATIO” value (poppy crops [1]) is on record?
Answer: 1.740 a

Question: And the “CROP WEIGHT” value (poppy crops [1])?
Answer: 2.46 c t/ha

Question: What about the MORPHINE (poppy crops [1]) of the same molecule?
Answer: 37.76 bc kg/ha

Question: What about the SEED (poppy crops [1]) of the same molecule?
Answer: 698 d kg/ha

Question: What about the STRAW (poppy crops [1]) of the same molecule?
Answer: 1749 bc kg/ha

Question: And the “STRAW MORPHINE” value (poppy crops [1])?
Answer: 2.15 ab %

Question: What about the “PLANT HEIGHT” value (poppy crops [1]; 5 weeks after last application) of the same molecule?
Answer: 90.0 c cm

Question: What about the “CAPSULE/SEED RATIO” value (poppy crops [2]) of the same molecule?
Answer: 0.883 a

Question: What about the MORPHINE (poppy crops [2]) of the same molecule?
Answer: 26.32 c kg/ha

Question: What about the “PLANT HEIGHT” value (poppy crops [2]) of the same molecule?
Answer: 67 c cm

Question: What about the SEED (poppy crops [2]) of the same molecule?
Answer: 1015 b kg/ha

Question: And the STRAW (poppy crops [2])?
Answer: 1255 c kg/ha

Question: And the “STRAW MORPHINE” value (poppy crops [2])?
Answer: 2.09 b %

Question: What about the YIELD (poppy crops [2]) of the same molecule?
Answer: 2.27 c t/ha

Question: What about the “CAPSULE/SEED RATIO” value (poppy crops [3]) of the same molecule?
Answer: 8.488 a

Question: What about the “CROP WEIGHT” value (poppy crops [3]) of the same molecule?
Answer: 3.22 d t/ha

Question: And the LODGING (poppy crops [3])?
Answer: 1.2 b %

Question: What about the MORPHINE (poppy crops [3]) of the same molecule?
Answer: 60.39 a kg/ha

Question: What about the SEED (poppy crops [3]) of the same molecule?
Answer: 267 c kg/ha

Question: And the STRAW (poppy crops [3])?
Answer: 2955 a kg/ha

Question: And the “STRAW MORPHINE” value (poppy crops [3])?
Answer: 2.04 a %

Question: And the HEIGHT (poppy crops [3]; height at green capsule stage)?
Answer: 99.2 a cm

Question: What about the “CAPS/SEED RATIO” value (poppy crops [4]) of the same molecule?
Answer: 10.444 a

Question: And the “CROP WEIGHT” value (poppy crops [4])?
Answer: 2.24 b t/ha

Question: What about the MORPHINE (poppy crops [4]) of the same molecule?
Answer: 47.11 b kg/ha

Question: What about the SEED (poppy crops [4]) of the same molecule?
Answer: 143 c kg/ha

Question: And the STRAW (poppy crops [4])?
Answer: 2099 a kg/ha

Question: What about the “STRAW MORPHINE” value (poppy crops [4]) of the same molecule?
Answer: 2.24 c %

Question: What about the HEIGHT (poppy crops [4]; height at end of flowering) of the same molecule?
Answer: 83.4 bc cm

Question: What about the “CAPS/SEED RATIO” value (poppy crops [5]) of the same molecule?
Answer: 8.976 a

Question: And the “CROP WEIGHT” value (poppy crops [5])?
Answer: 2.60 b t/ha

Question: What about the MORPHINE (poppy crops [5]) of the same molecule?
Answer: 49.48 a kg/ha

Question: And the SEED (poppy crops [5])?
Answer: 187 c kg/ha

Question: And the STRAW (poppy crops [5])?
Answer: 2343 a kg/ha

Question: And the “STRAW MORPHINE” value (poppy crops [5])?
Answer: 2.11 c %

Question: What about the “PLANT HEIGHT” value (poppy crops [5]; 6 weeks after last application) of the same molecule?
Answer: 97.0 c cm

Question: And the LODGING (poppy crops [5]; at capsule harvest)?
Answer: 2.7 b %

Question: And the “CAPSULE/SEED RATIO” value (poppy crops [6]; 36 MG/HA at 12-14LF)?
Answer: 0.603

Question: And the “CROP WEIGHT” value (poppy crops [6]; 36 MG/HA at 12-14LF)?
Answer: 3.78 t/ha

Question: And the MORPHINE (poppy crops [6]; 36 MG/HA at 12-14LF)?
Answer: 24.25 kg/ha

Question: What about the SEED (poppy crops [6]; 36 MG/HA at 12-14LF) of the same molecule?
Answer: 2020 kg/ha

Question: What about the STRAW (poppy crops [6]; 36 MG/HA at 12-14LF) of the same molecule?
Answer: 1757 kg/ha

Question: And the “STRAW MORPHINE” value (poppy crops [6]; 36 MG/HA at 12-14LF)?
Answer: 1.38%

Question: What about the “CAPSULE/SEED RATIO” value (poppy crops [6]; 120 MG/HA at 12-14LF) of the same molecule?
Answer: 0.673

Question: And the “CROP WEIGHT” value (poppy crops [6]; 120 MG/HA at 12-14LF)?
Answer: 3.37 t/ha

Question: And the MORPHINE (poppy crops [6]; 120 MG/HA at 12-14LF)?
Answer: 24.40 kg/ha

Question: What about the SEED (poppy crops [6]; 120 MG/HA at 12-14LF) of the same molecule?
Answer: 1710 kg/ha

Question: And the STRAW (poppy crops [6]; 120 MG/HA at 12-14LF)?
Answer: 1660 kg/ha

Question: What about the “STRAW MORPHINE” value (poppy crops [6]; 120 MG/HA at 12-14LF) of the same molecule?
Answer: 1.47%

Question: What about the “CAPSULE/SEED RATIO” value (poppy crops [6]; 120 MG/HA at GC (ground cover)) of the same molecule?
Answer: 1.253

Question: And the “CROP WEIGHT” value (poppy crops [6]; 120 MG/HA at GC (ground cover))?
Answer: 3.10 t/ha

Question: And the MORPHINE (poppy crops [6]; 120 MG/HA at GC (ground cover))?
Answer: 26.19 kg/ha

Question: What about the SEED (poppy crops [6]; 120 MG/HA at GC (ground cover)) of the same molecule?
Answer: 1105 kg/ha

Question: What about the STRAW (poppy crops [6]; 120 MG/HA at GC (ground cover)) of the same molecule?
Answer: 1999 kg/ha

Question: What about the “STRAW MORPHINE” value (poppy crops [6]; 120 MG/HA at GC (ground cover)) of the same molecule?
Answer: 1.31%
